Test results as given in US5556744A, “Methods and compositions for diagnosing and treating certain HIV infected patients” (The Trustees of the University of Pennsylvania, priority 1994, dated 1996).

Experiments:
[1] = system: maternal sera (antibodies); assay: ELISA peptide-binding of maternal sera (Example 6); parameters: species or system human; details: for Number of Non-Transmitters which bound to peptide / Percent of Non-Transmitters which bound to peptide: N = 12; for Number of Transmitters which bound to peptide / Percent of Transmitters which bound to peptide: N = 4
Excerpt: A total of 86 maternal sera samples obtained from patients of the Hospital of the University of Pennsylvania during the third trimester of pregnancy were used in this study 58 (67%) were non-transmitters and 28 (33%) were transmitters. This is approximately consistent with the national average (i.e. a rate of transmission between 25-30%). Transmission status was based upon serological or molecular diagnosis of children (at an age of greater than 15 months) born to these mothers. Because of the constraints on the volume of serum available for many of these samples, not all sera were analyzed with all the peptides. However, each sera sample was run with at least 40 peptides.
These peptides are of an average length of 16 amino acids and covered the entire external as well as the transmembrane glycoprotein of HIV-1. Peptide binding was analyzed by ELISA essentially as described in Example 3.
The results of one study, using some of the peptides identified above among others, is provided in Table 12, which illustrates the number and percent of non-transmitters which bound to the tested peptide. The percentage designation refers to the percentage of sera samples which bound to a particular peptide. A value of greater than 0% means that at least one of the samples bound to the particular peptides.

[2] = system: maternal HIV+ sera (antibodies); assay: RIA / ELISA binding of maternal HIV+ sera to gp120 and gp41 peptides (Example 3); parameters: species or system human
Method in brief: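 Peptides were coated at 10 μg/ml in carbonate buffer pH 9.6 and blocked with 1% BSA. Sera at 1:50 and 1:500 were incubated overnight at 4°C and detected with ¹²⁵I anti-human IgG (RIA) or HRP/TMB at OD450 (ELISA). Specific binding was taken as peptide minus no-peptide wells, scored as a ratio to normal human serum.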

[3] = Serum No. 1, Non-Transmission Group
[4] = Serum No. 2, Non-Transmission Group
[5] = Serum No. 3, Non-Transmission Group
[6] = Serum No. 4, Transmission Group
[7] = Serum No. 5, Transmission Group
[8] = Serum No. 6, Non-Transmission Group
[9] = Serum No. 7, Non-Transmission Group
[10] = Serum No. 8, Non-Transmission Group
[11] = Serum No. 9, Non-Transmission Group
[12] = Serum No. 10, Transmission Group
[13] = Serum No. 11, Non-Transmission Group
[14] = Serum No. 12, Non-Transmission Group
[15] = Serum No. 13, Transmission Group
[16] = Serum No. 14, Transmission Group
[17] = Serum No. 15, Transmission Group
[18] = Serum No. 16, Non-Transmission Group
[19] = Serum No. 17, Non-Transmission Group
[20] = Serum No. 18, Non-Transmission Group
[21] = Serum No. 19, Transmission Group
[22] = Serum No. 20, Non-Transmission Group

| Substance | Number of Non-Transmitters which bound to peptide [1] | Percent of Non-Transmitters which bound to peptide [1] [%] | Number of Transmitters which bound to peptide [1] | Percent of Transmitters which bound to peptide [1] [%] | Binding of maternal HIV+ serum to peptide (sera/NHS ratio) [2, 3] | Binding of maternal HIV+ serum to peptide (sera/NHS ratio) [2, 4] | Binding of maternal HIV+ serum to peptide (sera/NHS ratio) [2, 5] | Binding of maternal HIV+ serum to peptide (sera/NHS ratio) [2, 6] | Binding of maternal HIV+ serum to peptide (sera/NHS ratio) [2, 7] | Binding of maternal HIV+ serum to peptide (sera/NHS ratio) [2, 8] | Binding of maternal HIV+ serum to peptide (sera/NHS ratio) [2, 9] | Binding of maternal HIV+ serum to peptide (sera/NHS ratio) [2, 10] | Binding of maternal HIV+ serum to peptide (sera/NHS ratio) [2, 11] | Binding of maternal HIV+ serum to peptide (sera/NHS ratio) [2, 12] | Binding of maternal HIV+ serum to peptide (sera/NHS ratio) [2, 13] | Binding of maternal HIV+ serum to peptide (sera/NHS ratio) [2, 14] | Binding of maternal HIV+ serum to peptide (sera/NHS ratio) [2, 15] | Binding of maternal HIV+ serum to peptide (sera/NHS ratio) [2, 16] | Binding of maternal HIV+ serum to peptide (sera/NHS ratio) [2, 17] | Binding of maternal HIV+ serum to peptide (sera/NHS ratio) [2, 18] | further results |
| --- | --- | --- | --- | --- | --- | --- | --- | --- | --- | --- | --- | --- | --- | --- | --- | --- | --- | --- | --- | --- | --- |
| CIVQQQNNLLRAI-EAQQHLLQLTVWGIKQL (CIVQQQNNLLRAIEAQQHLLQLTVWGIKQL) [Peptide 560] | 0 | 0 | 0 | 0 | + (which value is between 2 to 3) | - (specific OD450 or cpm of sera sample binding to peptide divided by the specific OD450 or cpm of NHS sample binding to peptide, which value is less than 2) | - (specific OD450 or cpm of sera sample binding to peptide divided by the specific OD450 or cpm of NHS sample binding to peptide, which value is less than 2) | - (specific OD450 or cpm of sera sample binding to peptide divided by the specific OD450 or cpm of NHS sample binding to peptide, which value is less than 2) | - (specific OD450 or cpm of sera sample binding to peptide divided by the specific OD450 or cpm of NHS sample binding to peptide, which value is less than 2) | - (specific OD450 or cpm of sera sample binding to peptide divided by the specific OD450 or cpm of NHS sample binding to peptide, which value is less than 2) | - (specific OD450 or cpm of sera sample binding to peptide divided by the specific OD450 or cpm of NHS sample binding to peptide, which value is less than 2) | - (specific OD450 or cpm of sera sample binding to peptide divided by the specific OD450 or cpm of NHS sample binding to peptide, which value is less than 2) | - (specific OD450 or cpm of sera sample binding to peptide divided by the specific OD450 or cpm of NHS sample binding to peptide, which value is less than 2) | - (specific OD450 or cpm of sera sample binding to peptide divided by the specific OD450 or cpm of NHS sample binding to peptide, which value is less than 2) | - (specific OD450 or cpm of sera sample binding to peptide divided by the specific OD450 or cpm of NHS sample binding to peptide, which value is less than 2) | - (specific OD450 or cpm of sera sample binding to peptide divided by the specific OD450 or cpm of NHS sample binding to peptide, which value is less than 2) | - (specific OD450 or cpm of sera sample binding to peptide divided by the specific OD450 or cpm of NHS sample binding to peptide, which value is less than 2) | - (specific OD450 or cpm of sera sample binding to peptide divided by the specific OD450 or cpm of NHS sample binding to peptide, which value is less than 2) | - (specific OD450 or cpm of sera sample binding to peptide divided by the specific OD450 or cpm of NHS sample binding to peptide, which value is less than 2) | - (specific OD450 or cpm of sera sample binding to peptide divided by the specific OD450 or cpm of NHS sample binding to peptide, which value is less than 2) | Binding of maternal HIV+ serum to peptide (sera/NHS ratio) [2, 19]: - (specific OD450 or cpm of sera sample binding to peptide divided by the specific OD450 or cpm of NHS sample binding to peptide, which value is less than 2); Binding of maternal HIV+ serum to peptide (sera/NHS ratio) [2, 20]: - (specific OD450 or cpm of sera sample binding to peptide divided by the specific OD450 or cpm of NHS sample binding to peptide, which value is less than 2); Binding of maternal HIV+ serum to peptide (sera/NHS ratio) [2, 21]: - (specific OD450 or cpm of sera sample binding to peptide divided by the specific OD450 or cpm of NHS sample binding to peptide, which value is less than 2); Binding of maternal HIV+ serum to peptide (sera/NHS ratio) [2, 22]: - (specific OD450 or cpm of sera sample binding to peptide divided by the specific OD450 or cpm of NHS sample binding to peptide, which value is less than 2) |
| DREINNYTSLIHSLI [Peptide 40] | 1 | 8.3 | 0 | 0 | - (specific OD450 or cpm of sera sample binding to peptide divided by the specific OD450 or cpm of NHS sample binding to peptide, which value is less than 2) | - (specific OD450 or cpm of sera sample binding to peptide divided by the specific OD450 or cpm of NHS sample binding to peptide, which value is less than 2) | - (specific OD450 or cpm of sera sample binding to peptide divided by the specific OD450 or cpm of NHS sample binding to peptide, which value is less than 2) | - (specific OD450 or cpm of sera sample binding to peptide divided by the specific OD450 or cpm of NHS sample binding to peptide, which value is less than 2) | - (specific OD450 or cpm of sera sample binding to peptide divided by the specific OD450 or cpm of NHS sample binding to peptide, which value is less than 2) | - (specific OD450 or cpm of sera sample binding to peptide divided by the specific OD450 or cpm of NHS sample binding to peptide, which value is less than 2) | - (specific OD450 or cpm of sera sample binding to peptide divided by the specific OD450 or cpm of NHS sample binding to peptide, which value is less than 2) | - (specific OD450 or cpm of sera sample binding to peptide divided by the specific OD450 or cpm of NHS sample binding to peptide, which value is less than 2) | - (specific OD450 or cpm of sera sample binding to peptide divided by the specific OD450 or cpm of NHS sample binding to peptide, which value is less than 2) | - (specific OD450 or cpm of sera sample binding to peptide divided by the specific OD450 or cpm of NHS sample binding to peptide, which value is less than 2) | - (specific OD450 or cpm of sera sample binding to peptide divided by the specific OD450 or cpm of NHS sample binding to peptide, which value is less than 2) | - (specific OD450 or cpm of sera sample binding to peptide divided by the specific OD450 or cpm of NHS sample binding to peptide, which value is less than 2) | - (specific OD450 or cpm of sera sample binding to peptide divided by the specific OD450 or cpm of NHS sample binding to peptide, which value is less than 2) | - (specific OD450 or cpm of sera sample binding to peptide divided by the specific OD450 or cpm of NHS sample binding to peptide, which value is less than 2) | - (specific OD450 or cpm of sera sample binding to peptide divided by the specific OD450 or cpm of NHS sample binding to peptide, which value is less than 2) | - (specific OD450 or cpm of sera sample binding to peptide divided by the specific OD450 or cpm of NHS sample binding to peptide, which value is less than 2) | Binding of maternal HIV+ serum to peptide (sera/NHS ratio) [2, 19]: - (specific OD450 or cpm of sera sample binding to peptide divided by the specific OD450 or cpm of NHS sample binding to peptide, which value is less than 2); Binding of maternal HIV+ serum to peptide (sera/NHS ratio) [2, 20]: - (specific OD450 or cpm of sera sample binding to peptide divided by the specific OD450 or cpm of NHS sample binding to peptide, which value is less than 2); Binding of maternal HIV+ serum to peptide (sera/NHS ratio) [2, 21]: - (specific OD450 or cpm of sera sample binding to peptide divided by the specific OD450 or cpm of NHS sample binding to peptide, which value is less than 2); Binding of maternal HIV+ serum to peptide (sera/NHS ratio) [2, 22]: - (specific OD450 or cpm of sera sample binding to peptide divided by the specific OD450 or cpm of NHS sample binding to peptide, which value is less than 2) |
